Laboratory results taken from paper PMC11985001, “Melatonin rescues cell respiration impaired by hypoxia/reoxygenation in aortic endothelial cells and affects the mitochondrial bioenergetics targeting the F1FO-ATPase” (Redox Biology, 2025).

Tests used:
[1] = target: T1, F1 domain of mitochondrial F1FO-ATPase (F1-ATPase) (Sus scrofa, UniProt K7GLT8+P80021); assay: ATP hydrolysis (Pi release) with partially purified F1, […] NBD-Cl; assay type: biochemical
T1 construct: gene ATP5F1B; partially purified F1 domain from swine heart mitochondria; with other subunits of the F1 complex
T1 sequence (K7GLT8 89-570): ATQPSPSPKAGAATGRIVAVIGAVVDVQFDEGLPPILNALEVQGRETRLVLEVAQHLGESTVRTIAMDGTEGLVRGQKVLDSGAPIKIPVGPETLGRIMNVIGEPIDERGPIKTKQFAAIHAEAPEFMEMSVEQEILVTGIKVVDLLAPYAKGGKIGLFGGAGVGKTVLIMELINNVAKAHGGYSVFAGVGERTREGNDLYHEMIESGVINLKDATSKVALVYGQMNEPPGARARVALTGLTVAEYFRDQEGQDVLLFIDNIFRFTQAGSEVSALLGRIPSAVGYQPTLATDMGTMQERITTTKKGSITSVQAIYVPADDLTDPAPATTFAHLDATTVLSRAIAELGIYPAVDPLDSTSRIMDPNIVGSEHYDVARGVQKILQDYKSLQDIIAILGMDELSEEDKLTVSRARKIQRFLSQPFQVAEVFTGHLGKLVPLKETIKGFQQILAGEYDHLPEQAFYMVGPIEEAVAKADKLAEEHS
T1 sequence (P80021 44-553): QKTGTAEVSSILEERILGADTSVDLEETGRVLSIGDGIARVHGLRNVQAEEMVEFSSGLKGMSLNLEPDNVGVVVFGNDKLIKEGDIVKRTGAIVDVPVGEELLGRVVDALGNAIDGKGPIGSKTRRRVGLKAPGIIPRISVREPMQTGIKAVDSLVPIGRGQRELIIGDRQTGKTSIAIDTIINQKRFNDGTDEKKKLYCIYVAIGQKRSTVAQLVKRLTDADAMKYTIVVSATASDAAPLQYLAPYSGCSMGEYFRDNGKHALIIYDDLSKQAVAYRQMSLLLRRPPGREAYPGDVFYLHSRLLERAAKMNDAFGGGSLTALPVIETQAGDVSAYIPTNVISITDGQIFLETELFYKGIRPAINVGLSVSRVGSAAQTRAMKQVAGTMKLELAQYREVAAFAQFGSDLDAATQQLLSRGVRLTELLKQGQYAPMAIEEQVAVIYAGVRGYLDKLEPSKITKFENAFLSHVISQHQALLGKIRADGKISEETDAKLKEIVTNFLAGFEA
T1 sequence (A0A286ZYL7 23-168 partner): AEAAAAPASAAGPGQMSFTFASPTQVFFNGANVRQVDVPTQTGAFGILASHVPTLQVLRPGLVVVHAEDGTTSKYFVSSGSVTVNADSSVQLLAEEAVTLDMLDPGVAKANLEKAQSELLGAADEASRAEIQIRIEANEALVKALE
T1 sequence (A5GFX4 2-51 partner): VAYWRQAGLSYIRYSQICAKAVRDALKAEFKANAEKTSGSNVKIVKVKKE

[2] = target: T2, F1 domain of mitochondrial F1FO-ATPase (Ca2+-activated F1-ATPase) (Sus scrofa, UniProt K7GLT8+P80021); assay: ATP hydrolysis (Pi release) with partially purified F1 at […] melatonin; IC50 from the mitochondrial Ca2+-activated F1FO-ATPase (K'i […]); assay type: biochemical
T2 construct: gene ATP5F1B; native whole F1FO-ATPase in frozen-thawed pig heart mitochondria; not purified F1
T2 sequence (K7GLT8 89-570): as the sequence (K7GLT8 89-570) above
T2 sequence (P80021 44-553): as the sequence (P80021 44-553) above
T2 sequence (A0A286ZYL7 23-168 partner): as the sequence (A0A286ZYL7 23-168 partner) above
T2 sequence (A5GFX4 2-51 partner): as the sequence (A5GFX4 2-51 partner) above
T2 sequence (Q2EN81 24-213 partner): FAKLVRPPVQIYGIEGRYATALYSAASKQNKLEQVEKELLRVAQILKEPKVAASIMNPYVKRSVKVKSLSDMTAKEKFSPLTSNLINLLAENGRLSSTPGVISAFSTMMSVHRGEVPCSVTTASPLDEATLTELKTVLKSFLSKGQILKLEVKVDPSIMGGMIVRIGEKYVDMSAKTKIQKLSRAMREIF
T2 sequence (Q35915 whole entry partner, the tested form may be a part): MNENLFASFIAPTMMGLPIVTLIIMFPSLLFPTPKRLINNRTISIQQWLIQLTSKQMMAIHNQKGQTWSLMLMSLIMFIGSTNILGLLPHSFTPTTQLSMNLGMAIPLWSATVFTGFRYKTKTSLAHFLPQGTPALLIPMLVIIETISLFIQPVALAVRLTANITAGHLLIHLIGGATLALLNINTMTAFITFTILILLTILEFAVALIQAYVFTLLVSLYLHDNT

Compound	ATP hydrolysis (Pi release) with partially purified F1, 75 μM NBD-Cl [1]	IC50 [2] [mM]
O=[N+]([O-])c1ccc(Cl)c2nonc12 [NBD-Cl]	F1-ATPase activity was insensitive to oligomycin and was inhibited by NBD-Cl.	
COc1ccc2[nH]cc(CCNC(C)=O)c2c1 [melatonin]		6.63 ± 2.33
